Source: patent publication US11254965B2 (priority 2015, dated 2022)
Where two headings read alike, the source gives them in different places.

Columns and labels:
[1] = system: CLso; assay type: cell-based, Candidatus Liberibacter solanacearum; conditions: 48 h treatment, CLso-potato hairy roots
[2] = system: Lso; assay type: cell-based, Candidatus Liberibacter solanacearum; conditions: 100 mg/L penicillin

Compound: CC/C=C\CC1C(=O)CCC1CC(=O)OC (stereo not shown) [methyl-JA, methyl jasmonate]
- relative CLso titers versus DMSO control ([1]; 10 uM): suppressed CLso
- relative CLso titers versus DMSO control ([1]; 10 uM, listed as methyl-jasmonate): decreased CLso titers

Compound: O=C(O)c1ccccc1O [salicylic acid]
- relative CLso titers versus DMSO control ([1]; 100 uM): no significant effect

Compound: penicillin
- Lso titer versus Lso colonized hairy roots not exposed ([2]; 2 days of exposure): significantly lower titer of Lso
- Lso titer versus Lso colonized hairy roots not exposed ([2]; 7 days of exposure): significantly lower titer of Lso
- relative CLso titers versus DMSO control ([1]; 100 ppm): significantly suppressed CLso titers
- relative CLso titers versus DMSO control ([1]; 100 ppm, listed as Penicillin): decreased CLso titers
